Patent US11020360B2, “Methods, compounds, compositions and vehicles for delivering 3-amino-1-propanesulfonic acid” (Bellus Health, Inc., priority 2006, dated 2021)
Counter-ions that a name gives are not always drawn.

Tests used:
[1] = Mouse whole blood stability; type: in vitro ADME; conditions: 37° C.
Experimental: (§1) Test compounds were incubated for a total of 240 minutes at 37° C. in whole mouse and whole human blood. The compounds were added at time-point 0 and sample aliquots were withdrawn at each time point (usually 0, 60 and 240 minutes). The samples were extracted using protein precipitation. Analysis of extracted samples was achieved using HPLC with MS detection. Several types of HPLC columns and mobile phase were used depending of the polarity of the compound. The compound stability was determined by the % of compound remaining at 240 minutes (peak response of compound at 240 minutes/peak response at 0 minutes×100).

[2] = Human whole blood stability; type: in vitro ADME; conditions: 37° C.
Experimental: as §1

Row | SMILES | Blood stability (% of compound remaining after 240 min.) Mouse Blood [1] | Blood stability (% of compound remaining after 240 min.) Human Blood [2]
1 | N[C@@H](Cc1ccccc1)C(=O)NCCCS(=O)(=O)O [Compound A1] | + (+: <30%) | –
2 | O=C(NCCCS(=O)(=O)O)[C@@H]1CCCN1 [Compound A3] | ++ (++: 30-75%) | –
3 | CC(C)C[C@H](N)C(=O)NCCCS(=O)(=O)O [Compound A5] | + (+: <30%) | + (+: <30%)
4 | CSCC[C@H](N)C(=O)NCCCS(=O)(=O)O [Compound A6] | + (+: <30%) | ++ (++: 30-75%)
5 | C[C@H](N)C(=O)NCCCS(=O)(=O)O [Compound A8] | ++ (++: 30-75%) | + (+: <30%)
6 | C[C@@H](N)C(=O)NCCCS(=O)(=O)O [Compound A9] | +++ (+++: >75%) | +++ (+++: >75%)
7 | NCC(=O)NCCCS(=O)(=O)O [Compound A10] | ++ (++: 30-75%) | ++ (++: 30-75%)
8 | CCC(C)[C@H](N)C(=O)NCCCS(=O)(=O)O (stereo partly drawn) [Compound A11] | +++ (+++: >75%) | +++ (+++: >75%)
9 | CSCC[C@@H](N)C(=O)NCCCS(=O)(=O)O [Compound A12] | +++ (+++: >75%) | +++ (+++: >75%)
10 | N[C@@H](Cc1c[nH]cn1)C(=O)NCCCS(=O)(=O)O [Compound A13] | +++ (+++: >75%) | +++ (+++: >75%)
11 | CC(C)(N)C(=O)NCCCS(=O)(=O)O [Compound A14] | +++ (+++: >75%) | +++ (+++: >75%)
12 | N[C@H](C(=O)NCCCS(=O)(=O)O)c1ccccc1 [Compound A15] | + (+: <30%) | ++ (++: 30-75%)
13 | N[C@@H](Cc1c[nH]c2ccccc12)C(=O)NCCCS(=O)(=O)O [Compound A16] | ++ (++: 30-75%) | +++ (+++: >75%)
14 | N[C@@H](CCC(=O)OCc1ccccc1)C(=O)NCCCS(=O)(=O)O [Compound A19] | + (+: <30%) | + (+: <30%)
15 | CC(C)(CC(=O)O)CC(=O)NCCCS(=O)(=O)O [Compound B3, 3,3-dimethyl-5-oxo-5-[(3-sulfopropyl)amino]pentanoic Acid Sodium Salt] | ++ (++: 30-75%) | +++ (+++: >75%)
16 | CC(C)(CCC(=O)NCCCS(=O)(=O)O)C(=O)O [Compound B4] | +++ (+++: >75%) | +++ (+++: >75%)
17 | O=C(O)CCC(=O)NCCCS(=O)(=O)O [Compound B5] | +++ (+++: >75%) | +++ (+++: >75%)
18 | CC(=O)Oc1ccc(COC(=O)NCCCS(=O)(=O)O)cc1 [Compound C1, 3-(p-acetyloxybenzyloxycarbonyl)amino-1-propanesulfonic Acid Sodium Salt] | + (+: <30%) | + (+: <30%)
19 | CC(OC(=O)CCC(=O)O)OC(=O)NCCCS(=O)(=O)O (stereo not drawn) [Compound C4] | ++ (++: 30-75%) | +++ (+++: >75%)

Row | SMILES | Blood stability (% of compound remaining after 240 min.) Mouse Blood [1] | Blood stability (% of compound remaining after 240 min.) Human Blood [2]
20 | CC(OC(=O)CCC(=O)OCc1ccccc1)OC(=O)NCCCS(=O)(=O)O (stereo not drawn) [Compound C5] | + (+: <30%) | + (+: <30%)
21 | CC(OC(=O)CC(C)(C)CC(=O)OCc1ccccc1)OC(=O)NCCCS(=O)(=O)O (stereo not drawn) [Compound C7] | + (+: <30%) | +++ (+++: >75%)
22 | CC(OC(=O)CC(C)(C)CC(=O)O)OC(=O)NCCCS(=O)(=O)O (stereo not drawn) [Compound C8] | +++ (+++: >75%) | +++ (+++: >75%)
23 | CC(OC(=O)CCCCC(=O)O)OC(=O)NCCCS(=O)(=O)O (stereo not drawn) [Compound C9] | ++ (++: 30-75%) | ++ (++: 30-75%)
24 | CC(OC(=O)CCCCC(=O)OCc1ccccc1)OC(=O)NCCCS(=O)(=O)O (stereo not drawn) [Compound C10] | + (+: <30%) | + (+: <30%)
25 | CC(OC(=O)CCCC(=O)O)OC(=O)NCCCS(=O)(=O)O (stereo not drawn) [Compound C11] | +++ (+++: >75%) | +++ (+++: >75%)
26 | CC(OC(=O)CCCC(=O)OCc1ccccc1)OC(=O)NCCCS(=O)(=O)O (stereo not drawn) [Compound C12] | + (+: <30%) | ++ (++: 30-75%)
27 | CC(OC(=O)NCCCS(=O)(=O)O)OC(=O)C(C)(C)c1cccs1 (stereo not drawn) [Compound C13] | + (+: <30%) | + (+: <30%)
28 | CC(OC(=O)NCCCS(=O)(=O)O)OC(=O)C(C)(C)c1ccccc1 (stereo not drawn) [Compound C14] | ++ (++: 30-75%) | +++ (+++: >75%)
29 | CC(OC(=O)NCCCS(=O)(=O)O)OC(=O)C(C)(C)C (stereo not drawn) [Compound C15] | + (+: <30%) | ++ (++: 30-75%)
30 | CC(OC(=O)NCCCS(=O)(=O)O)OC(=O)c1ccccc1 (stereo not drawn) [Compound C16, 4-aza-7-methyl-6,8,-dioxa-5,9,-dioxo-9-phenyl-1-nonanesulfonic Acid Sodium Salt] | + (+: <30%) | ++ (++: 30-75%)
31 | CC(OC(=O)NCCCS(=O)(=O)O)OC(=O)C1CCCCC1 (stereo not drawn) [Compound C17] | + (+: <30%) | –
32 | CC(OC(=O)NCCCS(=O)(=O)O)OC(=O)C(C)C (stereo not drawn) [Compound C18] | + (+: <30%) | –
33 | CC(=O)OC(C)OC(=O)NCCCS(=O)(=O)O (stereo not drawn) [Compound C19, 4-aza-7-methyl-6,8,-dioxa-5,9,-dioxo-1-decanesulfonic acid Sodium Salt] | + (+: <30%) | –
34 | CC(C)(C)C(=O)OC(OC(=O)NCCCS(=O)(=O)O)C1CCCCC1 (stereo not drawn) [Compound C20] | + (+: <30%) | ++ (++: 30-75%)
35 | CC(=O)OC(OC(=O)NCCCS(=O)(=O)O)C(C)C (stereo not drawn) [Compound C22] | + (+: <30%) | ++ (++: 30-75%)
36 | CC(C)C(OC(=O)NCCCS(=O)(=O)O)OC(=O)C(C)(C)C (stereo not drawn) [Compound C23] | + (+: <30%) | ++ (++: 30-75%)
37 | CC(=O)OC(OC(=O)NCCCS(=O)(=O)O)C(C)(C)C (stereo not drawn) [Compound C24] | + (+: <30%) | ++ (++: 30-75%)
